In brackets after ≈: the same amount, converted by molar mass.

One data set deals with Staphylococcus aureus. As to the kind of experiment: microbe, parasite or virus in culture. It is filed as functional. The note with it: 209P, 24 h.
For data set [1], the system named is Escherichia coli. As to the kind of experiment: Antibacterial activity against Escherichia coli NIHJ after 24 hrs by twofold dilution assay. Type of data set: functional.
Data set [2] relates to Proteus mirabilis. As to the kind of experiment: microbe, parasite or virus in culture. It is filed as functional. The following applies: GN 2425, 24 h.
Description: Antibacterial activity against Proteus mirabilis GN 2425 after 24 hrs by twofold dilution assay
For the next data set, the system named is Pseudomonas aeruginosa. In words: microbe, parasite or virus in culture. The note with it: Pseudomonas aeruginosa, 104, 24 h. Type of data set: functional.
For the next data set, the system named is Klebsiella pneumoniae. In words: microbe, parasite or virus in culture. It is filed as functional. The note with it: PCI-602, 24 h.
The nature of data set [3]: Drug recovery in Wistar rat urine at 50 mg/kg, po measured over 24 hrs.
The nature of data set [4]: Drug level in Wistar rat serum at 50 mg/kg, po measured at 0.5 hr.
The nature of data set [5]: Drug level in Wistar rat serum at 50 mg/kg, po measured at 1 hr.
Data set [6] is described as follows: Drug level in Wistar rat serum at 50 mg/kg, po measured at 2 hrs.
The nature of data set [7]: Drug level in Wistar rat serum at 50 mg/kg, po measured at 4 hrs.
Data set [8] is described as follows: Drug level in Wistar rat serum at 50 mg/kg, po measured at 6 hrs. It is filed as ADME, organism-based. Also on record: dose 50 mg/kg, route oral. The following applies: read-out: Drug uptake.
Data set [9] relates to Escherichia coli. As to the kind of experiment: Antibacterial activity against Escherichia coli 0111 infected in ICR mouse administered orally 0.5 hr and 6 hrs post infection measured 1 week post challenge. Type of data set: functional. The following applies: Escherichia coli, 0111, po.
In data set [10] the test system is Proteus mirabilis. As to the kind of experiment: Antibacterial activity against Proteus mirabilis GN2425 infected in ICR mouse administered orally 0.5 hr and 6 hrs post infection measured 1 week post challenge. Type of data set: functional. The note with it: GN2425, po.

Description for Klebsiella pneumoniae: Antibacterial activity against Klebsiella pneumoniae PCI-602 after 24 hrs by twofold dilution assay
Description for Pseudomonas aeruginosa: Antibacterial activity against Pseudomonas aeruginosa 104 after 24 hrs by twofold dilution assay
Description for Staphylococcus aureus: Antibacterial activity against Staphylococcus aureus 209P after 24 hrs by twofold dilution assay

For the compound `C=CCOn1cc(C(=O)O)c(=O)c2c3sc(=O)n(CC=C)c3ccc21`, the MIC was 50 µg/mL (≈ 140 µM) in the data set with Staphylococcus aureus; 100 µg/mL (≈ 279 µM) in the data set on Escherichia coli [1]; > 200 µg/mL in the data set on Proteus mirabilis [2]; > 200 µg/mL in the data set with Pseudomonas aeruginosa; 200 µg/mL (≈ 558 µM) in the data set with Klebsiella pneumoniae.

As to `O=C(O)c1cn(OCc2ccccc2)c2ccc3c(sc(=O)n3Cc3ccccc3)c2c1=O`, the MIC is > 1.56 µg/mL in the data set on Staphylococcus aureus; > 200 µg/mL against Escherichia coli [1]; > 200 µg/mL against Proteus mirabilis [2]; > 200 µg/mL in the data set on Pseudomonas aeruginosa; > 200 µg/mL against Klebsiella pneumoniae.

As to `COn1cc(C(=O)O)c(=O)c2ccc3c(c21)CCC3`, the MIC with Staphylococcus aureus is 25 µg/mL (≈ 96.4 µM); against Escherichia coli [1], 12.5 µg/mL (≈ 48.2 µM); in the data set with Proteus mirabilis [2], 50 µg/mL (≈ 193 µM); in the data set on Pseudomonas aeruginosa it was > 200 µg/mL; with Klebsiella pneumoniae it was 3.13 µg/mL (≈ 12.1 µM).

With `C=CCOn1cc(C(=O)O)c(=O)c2cc3c(cc21)OCO3`, the MIC is 12.5 µg/mL (≈ 43.2 µM) against Staphylococcus aureus; 6.25 µg/mL (≈ 21.6 µM) against Escherichia coli [1]; 50 µg/mL (≈ 173 µM) in the data set with Proteus mirabilis [2]; 200 µg/mL (≈ 691 µM) with Pseudomonas aeruginosa; 3.13 µg/mL (≈ 10.8 µM) in the data set on Klebsiella pneumoniae.

For the compound `CC(C)On1cc(C(=O)O)c(=O)c2cc3c(cc21)OCO3`, the MIC in the data set with Staphylococcus aureus turned out to be 25 µg/mL (≈ 85.8 µM); against Escherichia coli [1], 6.25 µg/mL (≈ 21.5 µM); against Proteus mirabilis [2], 50 µg/mL (≈ 172 µM); in the data set with Pseudomonas aeruginosa, 200 µg/mL (≈ 687 µM); against Klebsiella pneumoniae, 3.13 µg/mL (≈ 10.7 µM).

As to `CCCOn1cc(C(=O)O)c(=O)c2cc3c(cc21)OCO3`, the MIC against Staphylococcus aureus is 50 µg/mL (≈ 172 µM); in the data set with Escherichia coli [1], 100 µg/mL (≈ 343 µM); against Proteus mirabilis [2], 200 µg/mL (≈ 687 µM); in the data set with Pseudomonas aeruginosa, 100 µg/mL (≈ 343 µM); with Klebsiella pneumoniae, > 200 µg/mL.

For `O=C(O)c1cn(OCCO)c2cc3c(cc2c1=O)OCO3`, the MIC was 100 µg/mL (≈ 341 µM) against Staphylococcus aureus; 100 µg/mL (≈ 341 µM) in the data set with Escherichia coli [1]; 100 µg/mL (≈ 341 µM) with Proteus mirabilis [2]; 100 µg/mL (≈ 341 µM) with Pseudomonas aeruginosa; > 200 µg/mL against Klebsiella pneumoniae.

Turning to `O=C(O)c1cn(OCC2CC2)c2cc3c(cc2c1=O)OCO3`, the MIC is 50 µg/mL (≈ 165 µM) against Staphylococcus aureus; 50 µg/mL (≈ 165 µM) in the data set with Escherichia coli [1]; 100 µg/mL (≈ 330 µM) against Proteus mirabilis [2]; > 200 µg/mL in the data set with Pseudomonas aeruginosa; > 200 µg/mL with Klebsiella pneumoniae.

In data set [3], `COn1cc(C(=O)O)c(=O)c2cc3c(cc21)CCO3` gave a dose excreted at 24 h of 11%. The MIC worked out at 6.25 µg/mL (≈ 23.9 µM) in the data set on Staphylococcus aureus; 0.78 µg/mL (≈ 2.99 µM) against Escherichia coli [1]; 0.39 µg/mL (≈ 1.49 µM) against Proteus mirabilis [2]; 12.5 µg/mL (≈ 47.9 µM) against Pseudomonas aeruginosa; 0.2 µg/mL (≈ 0.766 µM) in the data set on Klebsiella pneumoniae. In data set [4], this compound had a concentration at 0.5 h of 6200 ng/mL. This compound yielded a concentration at 1 h in [5] of 4700 ng/mL. For the same compound, the concentration at 2 h in data set [6] is 4000 ng/mL. The same compound yielded a concentration at 4 h in data set [7] of 1700 ng/mL.

As for `COn1cc(C(=O)O)c(=O)c2c3c(ccc21)OCC3`, the MIC was 50 µg/mL (≈ 191 µM) against Staphylococcus aureus; 100 µg/mL (≈ 383 µM) against Escherichia coli [1]; > 200 µg/mL against Proteus mirabilis [2]; > 200 µg/mL in the data set with Pseudomonas aeruginosa; 50 µg/mL (≈ 191 µM) against Klebsiella pneumoniae.

On to `COn1cc(C(=O)O)c(=O)c2c3c(ccc21)OCOC3`, for which the MIC was 25 µg/mL (≈ 90.2 µM) against Staphylococcus aureus; 12.5 µg/mL (≈ 45.1 µM) against Escherichia coli [1]; 200 µg/mL (≈ 721 µM) in the data set on Proteus mirabilis [2]; > 200 µg/mL against Pseudomonas aeruginosa; 12.5 µg/mL (≈ 45.1 µM) with Klebsiella pneumoniae.

Turning to `C=CCOn1cc(C(=O)O)c(=O)c2c3c(ccc21)OCOC3`, the MIC against Staphylococcus aureus was > 50 µg/mL; with Escherichia coli [1] it was > 200 µg/mL; in the data set with Proteus mirabilis [2], > 200 µg/mL; against Pseudomonas aeruginosa, > 200 µg/mL; against Klebsiella pneumoniae it was > 200 µg/mL.

For `COn1cc(C(=O)O)c(=O)c2c3sc(=O)n(C)c3ccc21`, the dose excreted at 24 h in data set [3] turned out to be 1.8%. Also, the MIC against Staphylococcus aureus is 6.25 µg/mL (≈ 20.4 µM); in the data set on Escherichia coli [1], 0.2 µg/mL (≈ 0.653 µM); against Proteus mirabilis [2], 0.39 µg/mL (≈ 1.27 µM); against Pseudomonas aeruginosa it was 12.5 µg/mL (≈ 40.8 µM); in the data set with Klebsiella pneumoniae, 0.2 µg/mL (≈ 0.653 µM). The compound also showed a concentration at 0.5 h in [4] of 2900 ng/mL. For the same compound, the concentration at 1 h in data set [5] worked out at 4500 ng/mL. In data set [6], this compound displayed a concentration at 2 h of 3700 ng/mL. The compound also had a concentration at 4 h in data set [7] of 1900 ng/mL.

On to `CCn1cc(C(=O)O)c(=O)c2c3c(ccc21)OCOC3`, for which the MIC in the data set with Staphylococcus aureus was 3.13 µg/mL (≈ 11.4 µM); with Escherichia coli [1] it was 6.25 µg/mL (≈ 22.7 µM); with Proteus mirabilis [2] it was 12.5 µg/mL (≈ 45.4 µM); in the data set on Pseudomonas aeruginosa, > 200 µg/mL.

Turning to `CCn1cc(C(=O)O)c(=O)c2ccc3c(c21)CCC3`, the MIC with Staphylococcus aureus is 3.13 µg/mL (≈ 12.2 µM); against Escherichia coli [1] it was 1.56 µg/mL (≈ 6.06 µM); against Proteus mirabilis [2], 6.25 µg/mL (≈ 24.3 µM); with Pseudomonas aeruginosa, 50 µg/mL (≈ 194 µM); with Klebsiella pneumoniae, 0.39 µg/mL (≈ 1.52 µM).

For `CCOn1cc(C(=O)O)c(=O)c2cc3c(cc21)OCO3`, the MIC with Staphylococcus aureus was found to be 25 µg/mL (≈ 90.2 µM); in the data set with Escherichia coli [1] it was 3.13 µg/mL (≈ 11.3 µM); in the data set on Proteus mirabilis [2], 50 µg/mL (≈ 180 µM); with Pseudomonas aeruginosa, 100 µg/mL (≈ 361 µM); in the data set with Klebsiella pneumoniae, 1.56 µg/mL (≈ 5.63 µM).

Consider `COn1cc(C(=O)O)c(=O)c2cc3c(cc21)OCO3` [MILOXACIN], for which, in data set [3], the dose excreted at 24 h stood at 7.5%. Further, the MIC against Staphylococcus aureus was 6.25 µg/mL (≈ 23.7 µM); against Escherichia coli [1], 0.39 µg/mL (≈ 1.48 µM); in the data set with Proteus mirabilis [2] it was 0.39 µg/mL (≈ 1.48 µM); in the data set with Pseudomonas aeruginosa it was 12.5 µg/mL (≈ 47.5 µM); with Klebsiella pneumoniae, 0.39 µg/mL (≈ 1.48 µM). In [4], this compound gave a concentration at 0.5 h of 11600 ng/mL. Further, the concentration at 1 h in [5] amounted to 27800 ng/mL. Further, the concentration at 2 h in data set [6] stood at 22300 ng/mL. In [7], this compound showed a concentration at 4 h of 19500 ng/mL. Moreover, the concentration at 6 h in data set [8] was 1500 ng/mL. For the same compound, the results for the median effective dose (ED50) in the data set on Escherichia coli [9] and in the data set on Proteus mirabilis [10] were 7.2 mg/kg and 30 mg/kg, respectively.

In [3], `CCn1cc(C(=O)O)c(=O)c2cc3c(cc21)OCO3` [OXOLINIC ACID] came in with a dose excreted at 24 h of 2.4%. The MIC is 3.13 µg/mL (≈ 12 µM) against Staphylococcus aureus; 0.39 µg/mL (≈ 1.49 µM) against Escherichia coli [1]; 0.39 µg/mL (≈ 1.49 µM) with Proteus mirabilis [2]; 6.25 µg/mL (≈ 23.9 µM) in the data set on Pseudomonas aeruginosa; 0.78 µg/mL (≈ 2.99 µM) in the data set with Klebsiella pneumoniae. This compound also displayed a concentration at 0.5 h in data set [4] of 700 ng/mL. In addition, in data set [5], the concentration at 1 h was determined as 1500 ng/mL. For the same compound, the concentration at 2 h in data set [6] was 4700 ng/mL. The concentration at 4 h in data set [7] was found to be 4800 ng/mL. In data set [8], the concentration at 6 h is 2700 ng/mL. Moreover, the median effective dose (ED50) with Escherichia coli [9] was found to be 20 mg/kg; in the data set on Proteus mirabilis [10], 48 mg/kg.

The compound `CCn1cc(C(=O)O)c(=O)c2c3sc(=O)n(C)c3ccc21` [TIOXACIN] had a dose excreted at 24 h in data set [3] of 0.3%. The MIC was 3.13 µg/mL (≈ 10.3 µM) with Staphylococcus aureus; 0.1 µg/mL (≈ 0.329 µM) in the data set on Escherichia coli [1]; 0.39 µg/mL (≈ 1.28 µM) in the data set with Proteus mirabilis [2]; > 200 µg/mL against Pseudomonas aeruginosa; 0.2 µg/mL (≈ 0.657 µM) with Klebsiella pneumoniae. This compound also came in with a concentration at 0.5 h in data set [4] of 300 ng/mL. Also, the concentration at 1 h in [5] stood at 360 ng/mL. The compound also came in with a concentration at 2 h in data set [6] of 320 ng/mL. In data set [7], this compound displayed a concentration at 4 h of 450 ng/mL. In data set [8], the concentration at 6 h worked out at 360 ng/mL.
